Data taken from US20210132079A1, “ANTIBODY” (UCB Biopharma SRL, priority 2015, published 2021).
pIC50: −log10 of the molar value. Entries after “also recorded” stand apart in the source; their conditions may differ.

Key:
soluble form of CD40L = target: T1, soluble form of CD40L (Homo sapiens, UniProt P29965); experiment: SPR on Biacore 4000 against immobilised CD40L; settings: read-out: geomean IC50 for binding against CD40L
T1 sequence (P29965 113-261 limits assumed): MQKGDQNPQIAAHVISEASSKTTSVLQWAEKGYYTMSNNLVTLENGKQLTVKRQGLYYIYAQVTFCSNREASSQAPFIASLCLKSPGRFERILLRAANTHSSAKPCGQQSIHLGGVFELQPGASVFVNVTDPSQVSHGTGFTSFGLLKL
Procedure: (§1) In another experiment, BIO8898 was tested against the immobilised soluble form of CD40L and the soluble form of TNFα by SPR on a Biacore 4000 machine.

soluble form of TNFα = target: T2, soluble form of TNFα (Homo sapiens, UniProt P01375); experiment: SPR on Biacore 4000 against immobilised TNFα; assay type: binding; settings: concentration of up to 100 μM
T2 construct: immobilised soluble form of CD40L and the soluble form of TNFα by SPR
T2 sequence (P01375 77-233 limits assumed): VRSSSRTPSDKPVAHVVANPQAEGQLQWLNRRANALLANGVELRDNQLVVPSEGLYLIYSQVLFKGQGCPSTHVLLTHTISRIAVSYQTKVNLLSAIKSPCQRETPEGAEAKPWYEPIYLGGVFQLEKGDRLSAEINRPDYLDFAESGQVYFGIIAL
Procedure: as §1

- pIC50 (soluble form of CD40L): 4.77
Structure (SMILES): O=C(NCc1cccc(-c2ccccc2)c1)c1cc(-c2cc(C(=O)NC(C(=O)O)C3CCCCC3)nc(C(=O)N3CCCC3CN3CCCC3)c2)cc(C(=O)N2CCCC2CN2CCCC2)n1 (centres unmarked) [BIO8898]
- binding to TNFα (soluble form of TNFα): found not to bind; also recorded: no binding was detected
